Experimental data reported in ChEMBL document CHEMBL1129806, “Diastereoselective synthesis of trans-2-(1-triphenylmethyl-1H-imidazol-4-yl)cyclopropanecarboxylic acids: key intermediates for the preparation of potent and chiral histamine H3 receptor agents” (Bioorg Med Chem Lett, 1997).

Target: Histamine H3 receptor (Rattus norvegicus, UniProt Q9QYN8)
Assay: Histamine H3 receptor affinity of compound was determined in rat cortical membranes using the H3 selective agonist ligand, [3H]N-alpha-methylhistamine
Format: cell membranes, Membrane

Chain of Histamine H3 receptor (Q9QYN8 whole entry): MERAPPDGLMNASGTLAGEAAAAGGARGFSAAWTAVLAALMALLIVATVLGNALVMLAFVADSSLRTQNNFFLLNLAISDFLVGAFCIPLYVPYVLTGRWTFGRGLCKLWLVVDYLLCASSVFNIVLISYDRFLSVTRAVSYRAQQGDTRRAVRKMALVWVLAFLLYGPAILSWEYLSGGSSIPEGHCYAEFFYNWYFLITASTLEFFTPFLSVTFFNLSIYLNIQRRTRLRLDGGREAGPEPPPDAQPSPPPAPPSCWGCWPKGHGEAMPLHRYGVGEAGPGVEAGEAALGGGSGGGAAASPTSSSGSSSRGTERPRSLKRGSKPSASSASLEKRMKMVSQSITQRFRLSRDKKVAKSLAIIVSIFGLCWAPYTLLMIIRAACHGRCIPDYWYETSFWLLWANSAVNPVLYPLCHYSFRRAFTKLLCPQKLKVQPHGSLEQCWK

Ki: 0.3 nM
SMILES: Ic1ccc(COCCCc2c[nH]cn2)cc1 [IODOPROXYFAN]
